Laboratory results from US20240238244A1, “USE OF A COMPOUND SUCH AS […] TREATING A VIRAL PULMONARY DISEASE” (4LIVING BIOTECH, priority 2021, published 2024).
Where “and” joins values, the source holds several entries; their conditions need not be identical. Equal entries are not always repeated. Where two headings read alike, the source gives them in different places.

Key:
[1] = tested on: H3N2 influenza A virus strain Scotland/20/74; settings: day 7; for Mean IL-17 levels in lung homogenates: Influenza group 575.58, non-infected 874.47; for Mean IL-1β levels in lung homogenates: Influenza group 3502.64, non-infected 1347.22; for Mean TNFα levels in lung homogenates: Influenza group 11038.49, non-infected 11879.58; for Mean IL-6 levels in lung homogenates: Influenza group 15055.10, non-infected 2412.49; for Mean C5a levels in lung homogenates: Influenza group 3758066.67, non-infected 2540416.67; for Mean CRP levels in lung homogenates: Influenza group 9243070.24, non-infected 2718616.67
[2] = tested on: H3N2 influenza A virus strain Scotland/20/74; settings: day 7; for Mean necrosis/cell death score: Influenza group 0.90; for Mean edema/HM/congestion score: Influenza group 1.50; for Mean inflammation score: Influenza group 1.90; for Mean total score according to Meyerholz and Beck: Influenza group 4.50
[3] = tested on: H3N2 influenza A virus strain Scotland/20/74
[4] = tested on: H3N2 influenza A virus strain Scotland/20/74; settings: day 7; for Percentage of fibrocytes recruited in the lung: Infected group 28.05±26.78%, Not-infected 7.58±1.70%
Experimental: Treatments were administered twice a day subcutaneously (SC) in mice from day 1 to day 6 by grasping the skin along back of mice. The needle was inserted at base of skin old between thumb and finger and solution was injected. Plerixafor® was administered (100 μl) twice a day to group “Infected+Plerixafor 1 mg/kg”, “Infected+Plerixafor 3 mg/kg”, and “Infected+Plerixafor 10 mg/kg”. Thus, mice received daily 1, 3 and 10 mg/kg for 7 days for group “Infected+Plerixafor 1 mg/kg”, “Infected+Plerixafor 3 mg/kg”, and “Infected+Plerixafor 10 mg/kg” respectively. Group “Infected” received water twice a day (100 μl).
The percentage of general fibrocytes was evaluated in lung by flow cytometry analysis. The proportion of fibrocytes was assessed using a combination of Antibody/Fluorochrome, i.e. CD45+, FSP1+, and their viability was assessed using the Live Dead cell viability assay. For each tested condition, a general gating strategy was followed to identify the different sub-populations. First, cells of interest were selected according to granulometry and size events via the FSC-H (Forward Scatter Height) and SSC-H (Side Scatter Height) parameters. Then, on the selected cells, fibrocytes were identified as CD45+/FSP1+ cells.
The percentage of fibrocytes recruited in the lung was evaluated at day 7 for 4 mice per group (3 for non-infected group).

[5] = Plerixafor 2.5 mg/kg daily SC (group 3M)
[6] = Plerixafor 5 mg/kg daily SC (group 4M)
[7] = Plerixafor 10 mg/kg daily SC (group 5M)
[8] = Plerixafor 20 mg/kg daily SC (group 6M)
[9] = Plerixafor 20 mg/kg daily SC (group 6M), p<0.01
[10] = Plerixafor at 2, 5, 5, 10 and 20 mg/kg
[11] = Plerixafor at 2, 5, 5 and 10 mg/kg

c1cc(CN2CCCNCCNCCCNCC2)ccc1CN1CCCNCCNCCCNCC1 [Plerixafor, 1,1′-[1,4-phenylene-bis(methylene)]-bis-1,4,8,11-tetraazacyclotetradecane]
Mean IL-17 levels in lung homogenates [1, 5]: 748.08 pg/ml/g of tissue
Mean IL-1β levels in lung homogenates [1, 5]: 4317.27 pg/ml/g of tissue
Mean TNFα levels in lung homogenates [1, 5]: 8983.01 pg/ml/g of tissue
Mean IL-6 levels in lung homogenates [1, 5]: 11166.93 pg/ml/g of tissue
Mean C5a levels in lung homogenates [1, 5]: 3699919.44 pg/ml/g of tissue
Mean CRP levels in lung homogenates [1, 5]: 9241738.89 pg/ml/g of tissue
Mean IL-17 levels in lung homogenates [1, 6]: 663.57 pg/ml/g of tissue
Mean IL-1β levels in lung homogenates [1, 6]: 2534.11 pg/ml/g of tissue
Mean TNFα levels in lung homogenates [1, 6]: 9307.38 pg/ml/g of tissue
Mean IL-6 levels in lung homogenates [1, 6]: 11059.46 pg/ml/g of tissue
Mean C5a levels in lung homogenates [1, 6]: 3440259.52 pg/ml/g of tissue
Mean CRP levels in lung homogenates [1, 6]: 7792352.38 pg/ml/g of tissue
Mean IL-17 levels in lung homogenates [1, 7]: 799.98 pg/ml/g of tissue
Mean IL-1β levels in lung homogenates [1, 7]: 3319.66 pg/ml/g of tissue
Mean TNFα levels in lung homogenates [1, 7]: 11138.01 pg/ml/g of tissue
Mean IL-6 levels in lung homogenates [1, 7]: 13927.98 pg/ml/g of tissue
Mean C5a levels in lung homogenates [1, 7]: 3519038.68 pg/ml/g of tissue
Mean CRP levels in lung homogenates [1, 7]: 8406400.43 pg/ml/g of tissue
Mean IL-17 levels in lung homogenates [1, 8]: 603.22 pg/ml/g of tissue
Mean IL-1β levels in lung homogenates [1, 8]: 2805.78 pg/ml/g of tissue
Mean TNFα levels in lung homogenates [1, 8]: 6224.51±3014.54 pg/ml/g of tissue and 6224.51 pg/ml/g of tissue
Mean IL-6 levels in lung homogenates ([1]; Plerixafor 20 mg/kg daily SC (group 6M), p<0.05): 5408.82±3539.57 pg/ml/g of tissue and 5408.82 * pg/ml/g of tissue
Mean C5a levels in lung homogenates [1, 9]: 2220172.76±972810.94 pg/ml/g of tissue and 2220172.76 pg/ml/g of tissue
Mean CRP levels in lung homogenates [1, 9]: 4488307.08±2059120.87 pg/ml/g of tissue and 4488307.08 pg/ml/g of tissue
Modulation of IL-1β levels [1, 10]: did not significantly modulate
Modulation of IL-17 levels [1, 10]: did not significantly modulate
Modulation of C5a levels [1, 11]: did not significantly modulate
Modulation of IL-6 levels in comparison to Influenza group [1, 11]: did not significantly modulate
Modulation of TNFα levels [1, 11]: did not significantly modulate
Modulation of CRP levels ([1]; Plerixafor at 2.5, 5 and 10 mg/kg): did not significantly modulate
Mean necrosis/cell death score [2, 5]: 0.50
Mean edema/HM/congestion score [2, 5]: 0.70
Mean inflammation score [2, 5]: 1.40
Mean total score according to Meyerholz and Beck [2, 5]: 2.70
Mean necrosis/cell death score [2, 6]: 0.80
Mean edema/HM/congestion score [2, 6]: 0.90
Mean inflammation score [2, 6]: 2.00
Mean total score according to Meyerholz and Beck [2, 6]: 4.00
Mean necrosis/cell death score [2, 7]: 0.50
Mean edema/HM/congestion score [2, 7]: 0.50
Mean inflammation score [2, 7]: 1.70
Mean total score according to Meyerholz and Beck [2, 7]: 2.90
Mean necrosis/cell death score [2, 8]: 0.40±0.70 and 0.40
Mean edema/HM/congestion score [2, 8]: 0.60±0.52 and 0.60
Mean inflammation score [2, 8]: 1.60±1.17 and 1.60
Mean total score according to Meyerholz and Beck [2, 8]: 2.80±2.35 and 2.80
Severity, distribution and incidence of pulmonary lesions in comparison to influenza treated mice ([2]; groups 3M, 4M, 5M and 6M (Plerixafor 2.5, 5, 10, 20 mg/kg daily SC)): slightly lower
BW (body weight) 7 days after the infection ([3]; Plerixafor 20 mg/kg daily (10 mg/kg SC twice a day, day 1 to 6), day 7, influenza group 94±5%, non-infected 103±4%, p<0.05): 97±5%
Modulation of BW loss ([3]; Plerixafor at doses inferior or equal to 10 mg/kg daily, SC twice a day, day 1 to 6): did not modulate BW loss
Percentage of fibrocytes recruited in the lung ([4]; Infected+Plerixafor 1 mg/kg daily SC): 19.77±19.93%
Percentage of fibrocytes recruited in the lung ([4]; Infected+Plerixafor 3 mg/kg daily SC): 12.90±5.44%
Percentage of fibrocytes recruited in the lung ([4]; Infected+Plerixafor 10 mg/kg daily SC): 23.86±18.39%
Effect on the recruitment of fibrocytes in the lung ([4]; whatever the Plerixafor dosage tested (1, 3, 10 mg/kg daily), no dose-effect): does not affect significantly
